The NIST ThermoML archive (doi:10.1021/je500696p)
Numbers after ± are expanded uncertainties.

Columns and labels:
[1] = excess molar enthalpy (molar enthalpy of mixing); xn = mol fraction of the nth substance listed; settings: 308.15 K, 100 kPa, Liquid, Calvet calorimetry
[2] = xn = mol fraction of the nth substance listed; settings: 100 kPa, Liquid, Vibrating tube method, x1 = 1

Question: Which results are given for `CCCC[N+](C)(C)C.O=S(=O)([N-]S(=O)(=O)C(F)(F)F)C(F)(F)F` [butyltrimethylammonium bis(trifluoromethylsulfonyl)imide] + C[S+](C)[O-]?
Answer: excess molar enthalpy ([1]; x2 = 0.1288): -0.027 ± 0.00717 kcal/mol; excess molar enthalpy ([1]; x2 = 0.2255): -0.0416 ± 0.00717 kcal/mol; excess molar enthalpy ([1]; x2 = 0.2609): -0.0459 ± 0.00717 kcal/mol; excess molar enthalpy ([1]; x2 = 0.3095): -0.0511 ± 0.00717 kcal/mol; excess molar enthalpy ([1]; x2 = 0.3626): -0.0593 ± 0.00717 kcal/mol; excess molar enthalpy ([1]; x2 = 0.4382): -0.0629 ± 0.00717 kcal/mol; excess molar enthalpy ([1]; x2 = 0.4941): -0.0667 ± 0.00717 kcal/mol; excess molar enthalpy ([1]; x2 = 0.4983): -0.0638 ± 0.00717 kcal/mol; excess molar enthalpy ([1]; x2 = 0.5007): -0.0643 ± 0.00717 kcal/mol; excess molar enthalpy ([1]; x2 = 0.559): -0.0684 ± 0.00717 kcal/mol; excess molar enthalpy ([1]; x2 = 0.5642): -0.0679 ± 0.00717 kcal/mol; excess molar enthalpy ([1]; x2 = 0.5646): -0.0691 ± 0.00717 kcal/mol; excess molar enthalpy ([1]; x2 = 0.6132): -0.0629 ± 0.00717 kcal/mol; excess molar enthalpy ([1]; x2 = 0.6267): -0.0619 ± 0.00717 kcal/mol; excess molar enthalpy ([1]; x2 = 0.7533): -0.0399 ± 0.00717 kcal/mol; excess molar enthalpy ([1]; x2 = 0.7693): -0.037 ± 0.00717 kcal/mol; excess molar enthalpy ([1]; x2 = 0.8684): -0.0155 ± 0.00717 kcal/mol

Question: Which mass density ([2]; 293.15 K) does the source give for `CN(C)C=O` [dimethylformamide] + CCCC[N+](C)(C)C.O=S(=O)([N-]S(=O)(=O)C(F)(F)F)C(F)(F)F here?
Answer: 948.7 ± 2.8 kg/m3

Question: And the mass density ([2]; 295.15 K)?
Answer: 946.8 ± 2.8 kg/m3

Question: What about the mass density ([2]; 298.15 K) of the same molecule?
Answer: 943.9 ± 2.8 kg/m3

Question: What about the mass density ([2]; 303.15 K) of the same molecule?
Answer: 939.1 ± 2.8 kg/m3

Question: And the mass density ([2]; 308.15 K)?
Answer: 934.4 ± 2.8 kg/m3

Question: And the mass density ([2]; 313.15 K)?
Answer: 929.6 ± 2.8 kg/m3

Question: What about the mass density ([2]; 318.15 K) of the same molecule?
Answer: 924.8 ± 2.8 kg/m3

Question: And the mass density ([2]; 323.15 K)?
Answer: 920 ± 2.8 kg/m3

Question: What about the mass density ([2]; 328.15 K) of the same molecule?
Answer: 915.2 ± 2.7 kg/m3

Question: What about the mass density ([2]; 333.15 K) of the same molecule?
Answer: 910.4 ± 2.7 kg/m3

Question: For `CCO` [ethanol] + CCCC[N+](C)(C)C.O=S(=O)([N-]S(=O)(=O)C(F)(F)F)C(F)(F)F, which mass density ([2]; 293.15 K) is on record?
Answer: 789.6 ± 3.2 kg/m3

Question: And the mass density ([2]; 295.15 K)?
Answer: 787.9 ± 3.2 kg/m3

Question: What about the mass density ([2]; 298.15 K) of the same molecule?
Answer: 785.3 ± 3.1 kg/m3

Question: And the mass density ([2]; 303.15 K)?
Answer: 781 ± 3.1 kg/m3

Question: And the mass density ([2]; 308.15 K)?
Answer: 776.7 ± 3.1 kg/m3

Question: What about the mass density ([2]; 313.15 K) of the same molecule?
Answer: 772.3 ± 3.1 kg/m3

Question: And the mass density ([2]; 318.15 K)?
Answer: 767.9 ± 3.1 kg/m3

Question: What about the mass density ([2]; 323.15 K) of the same molecule?
Answer: 763.5 ± 3.1 kg/m3

Question: What about the mass density ([2]; 328.15 K) of the same molecule?
Answer: 758.9 ± 3 kg/m3

Question: What about the mass density ([2]; 333.15 K) of the same molecule?
Answer: 754.4 ± 3 kg/m3

Question: Which results are given for `CCCO` [propan-1-ol] + CCCC[N+](C)(C)C.O=S(=O)([N-]S(=O)(=O)C(F)(F)F)C(F)(F)F?
Answer: mass density ([2]; 293.15 K): 803.6 ± 2.4 kg/m3; mass density ([2]; 295.15 K): 802.1 ± 2.4 kg/m3; mass density ([2]; 298.15 K): 799.7 ± 2.4 kg/m3; mass density ([2]; 303.15 K): 795.6 ± 2.4 kg/m3; mass density ([2]; 308.15 K): 791.6 ± 2.4 kg/m3; mass density ([2]; 313.15 K): 787.5 ± 2.4 kg/m3; mass density ([2]; 318.15 K): 783.4 ± 2.4 kg/m3; mass density ([2]; 323.15 K): 779.2 ± 2.3 kg/m3; mass density ([2]; 328.15 K): 774.9 ± 2.3 kg/m3; mass density ([2]; 333.15 K): 770.6 ± 2.3 kg/m3
